Laboratory results as given in article PMC6896740, “Safety, tolerability, pharmacokinetics, and pharmacodynamics of PF-06650833, a selective interleukin-1 receptor-associated kinase 4 (IRAK4) inhibitor, in single and multiple ascending dose randomized phase 1 studies in healthy subjects” (Arthritis Research & Therapy, 2019).
Read-outs that look alike come from different tables or passages of the source.

Assay: Study 2 (MAD) plasma and urine pharmacokinetics
Format: in vivo, human
Details: for AUC / Cmax / Tmax: human, plasma, oral; for AUC: read-out: AUCtau, geometric mean (%CV); for Cmax: read-out: Cmax, geometric mean (%CV); for Tmax: read-out: Tmax, median (range)
Experimental: Subjects were enrolled sequentially into seven cohorts. Within each cohort, eight subjects and two subjects were randomized to receive PF-06650833 and placebo, respectively. Doses for all cohorts were administered after a standard (not high-fat) meal. Multiple dosing regimens (once daily [QD] 24 h apart, twice daily [BID] 12 h apart, three times per day [TID] 8 h apart, and four times per day [QID] 6 h apart) were used to provide required total daily doses. In the final dosing scheme, multiple oral doses of PF-06650833 IR suspension formulations at 25, 100, 250, and 750 mg BID and 1000 mg QID were administered in cohorts 1–5. PF-06650833 IR 330 mg TID (cohort 6) and an MR tablet at a dose of 300 mg QD (cohort 7) were also evaluated (see Fig. 1b for final dosing scheme).
For both studies, samples of blood (and urine in study 2) were taken for evaluation of PK/PD parameters (see Additional file 1: Supplemental Methods). PK samples were obtained at the nominal time relative to dosing (± 10%). Plasma and urine samples were analyzed using validated, sensitive, and specific liquid chromatography tandem mass spectrometric methods (at Pfizer Inc., Groton, CT, USA, for study 1 and at Worldwide Pharmacokinetics, Dynamics and Metabolism, Cambridge, MA, USA, for study 2). The lower limit of quantification for PF-06650833 in plasma was 0.0500 ng/mL. The lower limit of quantification for PF-06650833 in urine was 1.00 ng/mL. Serum samples were also analyzed for hsCRP, and plasma samples were analyzed for 4β-hydroxycholesterol and cholesterol.
PK parameters were calculated using non-compartmental analysis of concentration-time data. For study 1 only, data from cohort 1 (period 4 [IR 30 mg] versus period 5 [IR 30 mg + food]) and cohort 3 (period 2 [MR 30 mg] versus period 3 [MR 30 mg + food]) were used to estimate the effect of food intake. Cmax and AUC were calculated for each subject and treatment, with and without food, after which a within-subject difference could be found between fed (high-fat meal) and fasted doses. Analysis of covariance was used to model these within-subject differences and to calculate 95% confidence intervals (CIs) for the differences for each dose (IR 30 mg and MR 30 mg). For study 2 only, the amounts of PF-06650833 in urine and renal clearance were listed and summarized descriptively. As part of the routine safety laboratory monitoring, the presence of any atypical crystals in urine specimens was semi-quantitatively assessed microscopically by typical histopathologic methods and scored as numbers of crystals per high power field (hpf); higher abundance (moderate or many) was defined as ≥ 15/hpf. No formal interim analyses were conducted.
22 In Study 2, pre-dose blood samples were collected for PK analysis on days 1, 2, 4, 7, 10, and
23 14. Post-dose samples were collected for PK analysis on days 1 and 14 at 0.5, 1, 2, 4, 6, 8, 10,
24 12, and 16 hours post-dose; on day 7 at 1, 2, 4, 6, 8, and 12 hours post-dose; and on days 15,
27 hours post-dose. […]
32 Blood samples (2 mL, to obtain ≥0.5 mL plasma) were collected in K2EDTA tubes
33 (dipotassium ethylenediaminetetraacetic acid) and centrifuged at ~1700 x g for 10 minutes at
34 4 °C, with plasma then stored in polypropylene tubes at -70 °C within 1 hour of collection.
35 Plasma samples were analyzed using a validated, sensitive , and specific liquid
36 chromatography tandem mass spectrometric method (LC -MS; at Pfizer Inc, Groton, CT, USA
37 for Study 1; and at Worldwide Pharmaco kinetics, Dynamics, and Metabolism, Cambridge,
38 MA, USA for Study 2). The lower limit of quantification (LLOQ) for PF-06650833 in plasma
39 was 0.0500 ng/mL. Between-day assay accuracy values were also calculated (not shown).
40 In Study 2 only, urine samples we re collected in aliquots pre-dose. Cumulative 0–12-hour
41 and 12–24-hour urine samples were also collected as follows: from day 1 after morning
42 dosing to day 2 before morning dosing (and before breakfast) for cohorts 6 –8 only; and from […]

[1] = IR 25 mg BID, day 14, fed (standard meal)
[2] = IR 100 mg BID, day 14, fed (standard meal)
[3] = IR 250 mg BID, day 14, fed (standard meal)
[4] = IR 330 mg TID, day 14, fed (standard meal)
[5] = IR 750 mg BID, day 14, fed (standard meal)
[6] = MR 300 mg QD, day 14, fed (standard meal)
[7] = 25 mg, IR 25 mg BID, day 1, fed (standard meal)
[8] = 25 mg, IR 25 mg BID, day 14, fed (standard meal)
[9] = 100 mg, IR 100 mg BID, day 1, fed (standard meal)

SMILES: CC[C@@H]1[C@H](F)C(=O)N[C@@H]1COc1nccc2cc(C(N)=O)c(OC)cc12 [PF-06650833, 1-{[(2S,3S,4S)-3-Ethyl-4-fluoro-5-oxopyrrolidin-2-yl]methoxy}-7-methoxyisoquinoline-6-carboxamide]
- Tmax, median (range) (IR 25 mg BID, day 1, fed (standard meal)): 2.03 (1.00–4.00) h
- Ae24% (drug recovered unchanged in urine up to 24 h), geometric mean (%CV) [1]: 0.7288 (27) %
- CL/F, geometric mean (%CV) [1]: 122.4 (26) L/h
- Cav, geometric mean (%CV) [1]: 17.03 (26) ng/mL
- Cmin, geometric mean (%CV) [1]: 4.064 (46) ng/mL
- PTF (peak-trough fluctuation), geometric mean (%CV) [1]: 1.868 (21)
- Rac (observed accumulation ratio), geometric mean (%CV) [1]: 1.250 (19)
- Ae24% (drug recovered unchanged in urine up to 24 h), geometric mean (%CV) [2]: 0.9414 (29) %
- CL/F, geometric mean (%CV) [2]: 128.9 (16) L/h
- Cav, geometric mean (%CV) [2]: 64.72 (16) ng/mL
- Cmin, geometric mean (%CV) [2]: 14.13 (40) ng/mL
- PTF (peak-trough fluctuation), geometric mean (%CV) [2]: 1.740 (16)
- Rac (observed accumulation ratio), geometric mean (%CV) [2]: 1.373 (23)
- Ae24% (drug recovered unchanged in urine up to 24 h), geometric mean (%CV) [3]: 0.4822 (53) %
- CL/F, geometric mean (%CV) [3]: 183.7 (39) L/h
- Cav, geometric mean (%CV) [3]: 113.3 (39) ng/mL
- Cmin, geometric mean (%CV) [3]: 20.07 (76) ng/mL
- PTF (peak-trough fluctuation), geometric mean (%CV) [3]: 1.911 (14)
- Rac (observed accumulation ratio), geometric mean (%CV) [3]: 1.009 (13)
- Ae24% (drug recovered unchanged in urine up to 24 h), geometric mean (%CV) [4]: 0.6372 (34) %
- CL/F, geometric mean (%CV) [4]: 206.1 (28) L/h
- Cav, geometric mean (%CV) [4]: 200.1 (28) ng/mL
- Cmin, geometric mean (%CV) [4]: 51.48 (68) ng/mL
- PTF (peak-trough fluctuation), geometric mean (%CV) [4]: 1.307 (18)
- Rac (observed accumulation ratio), geometric mean (%CV) [4]: 1.068 (26)
- Ae24% (drug recovered unchanged in urine up to 24 h), geometric mean (%CV) [5]: 0.4885 (24) %
- CL/F, geometric mean (%CV) [5]: 302.9 (24) L/h
- CLr (renal clearance), geometric mean (%CV) [5]: 23.14 (19) mL/min
- Cav, geometric mean (%CV) [5]: 206.3 (24) ng/mL
- Cmin, geometric mean (%CV) [5]: 33.07 (50) ng/mL
- PTF (peak-trough fluctuation), geometric mean (%CV) [5]: 1.868 (12)
- Rac (observed accumulation ratio), geometric mean (%CV) [5]: 0.9377 (32)
- Ae24% (drug recovered unchanged in urine up to 24 h), geometric mean (%CV) [6]: 0.300 (70) %
- CL/F, geometric mean (%CV) [6]: 308.0 (65) L/h
- Cav, geometric mean (%CV) [6]: 40.62 (65) ng/mL
- Cmin, geometric mean (%CV) [6]: 6.471 (55) ng/mL
- PTF (peak-trough fluctuation), geometric mean (%CV) [6]: 3.383 (37)
- Rac (observed accumulation ratio), geometric mean (%CV) [6]: 0.8985 (24)
- Dose recovered unchanged in urine (all dose groups): Less than 1%
- Steady state reached by (all dose groups, based on Cmin): ≤ 4 days
- AUC [7]: 164 ng·h/mL
- Cmax [7]: 30 ng/mL
- Tmax [7]: 2 h
- AUC [8]: 204 ng·h/mL
- Cmax [8]: 36.2 ng/mL
- Tmax [8]: 2 h
- AUC [9]: 566 ng·h/mL
- Cmax [9]: 102 ng/mL
